Measurements reported in patent US20160008431A1, “Tumor Therapy With Antitumor Agents In Combination With Sindbis Virus-Based Vectors” (priority 2008, published 2016).
Entries after “also recorded” stand apart in the source; their conditions may differ.

Key:
[1] = in human; cited from earlier work
[2] = test system: s.c. N2a tumors; test: s.c. N2a neuroblastoma model: vascular leakiness, vector transduction, tumor growth; format: in vivo, SCID mice; settings: for tumor vascular permeability / leakiness (AngioSense signals): metronomic i.p. Paclitaxel 16 mg/Kg or Cisplatin 4 mg/Kg
Source text: FIG. 7A-7D. […] We used 1:1 RD-Sindbis/LacZ:RC-Sindbis/Fluc mixture as a control. AngioSense® 750 (0.66 nmol) was i.v. injected on day 1. […] B, quantitative presentation of luciferase signals in tumors. C and D, quantitative presentation of AngioSense® signals of tumors receiving indicated treatments.
A, relative growth curves of s.c. N2a tumors treated with Paclitaxel alone (Taxol®) or untreated (Ctrl). B, relative tumor growth curves of different treatment groups as in FIG. 5.
FIG. 9A-9C. […] Starting on day 0, daily treatments of Cisplatin (4 mg/Kg or 12 mg/m^2 compared with maximum tolerated dose of 100 mg/m^2 in humans) were i.p. injected into SCID mice bearing s.c. N2a tumors. One last Cisplatin treatment was administrated on day 4. A, to visualize vascular leakiness, AngioSense® 750 (0.66 nmol) was i.v. injected on day 1 and imaged on day 2. B, RC-Sindbis/Fluc was i.v. injected on day 0 and day 2. Luciferase activities in tumors that indicated active vector propagation were monitored on day 3. C, relative tumor growth curves of different treatment groups.
All animal experiments were performed in accordance with NIH and institutional guidelines. BHK cells (1.5×10^6/mouse) were s.c. inoculated into SCID mice (female, 6-8 week old, Taconic, Germantown, N.Y.). The mouse neuroblastoma tumors were induced by s.c. injection of 1.5×10^6 N2a cells into SCID mice 13 days prior to treatments. For better visualization, we remove excessive fur on the skin over the tumor and its surrounding region. The setting for dual mPlum/AngioSense imaging is as following: ex605/em660, 680 and 700 nm, followed by ex745/em800, 820 and 840 nm. Bioluminescent imaging of luciferase activities was performed as described before (7). Tumor sizes were measured using the formula: π/6×length (mm)×width (mm)^2.
In order to test whether chemotherapeutic agents synergize with Sindbis vector in tumor eradication by modulating vascular leakiness, we used a s.c. mouse N2a neuroblastoma model.
We used a replication-competent (RC) Sindbis/Fluc vector (21) instead of an RD one to further enhance the tumor transduction signal output (FIG. 7B) in N2a tumors. RC vector carries a full set of viral structural genes to support its replication. Specific tumor infection of RC vector could result in oncolytic effects by intratumoral vector replication and amplification. […] To ensure temporary expression of VEGF, we used replication defective RD-Sindbis/VEGF mixed with RC-Sindbis/Fluc (1:1).

[3] = test system: ES2/Fluc tumors; test: Sindbis+CPT-11 ES2/Fluc tumor survival experiment; format: in vivo, Es1^c/SCID mice; settings: untreated mice survived about 4 weeks; i.p. treatment 4 times a week for 5 weeks from day 5
Description: FIGS. 1A and 1B: Survival of tumor-bearing mice treated with Sindbis+CPT-11. (A) Mice were injected with 1.5×10^6 ES2/Fluc cells on day 0. Mice were then divided into 4 groups of 10. Treatment started on day 5, and lasted for 5 weeks, in which mice were treated 4 times a week. Mice treated with Sindbis/LacZ received I.P. injection of ˜10^7 plaque-forming units of the vector in 0.5 mL OptiMEM; mice treated with CPT-11 received I.P. injections of 15 mg/kg body weight of the recipient of CPT-11 in […]. Mice treated with the combined treatments were treated with Sindbis/LacZ and CPT-11 on the same day (Sindbis/LacZ in the morning, and CPT-11 in the evening). […] The experiment was repeated twice (for a total of 20 mice per group), and the results were combined into one graph. (B) Tumor load in mice treated with Sindbis/LacZ+CPT-11. On day 4 after injecting the mice with 10 million ES2/Fluc cells, tumors developed in various IP locations (top). […]
C.B-17 SCID mice (Taconic, Germantown, N.Y.) were bred with a plasma esterase deficient mouse model—Es1^c Foxn1^nu/J (Jackson laboratory, Bar Harbor, Me.). […] Briefly, blood was collected from F2 mice, and was tested by FACS analysis to determine T and B cell levels, and the plasma esterase activity was measured using a nitrophenyl acetate assay (Spectrum, Gardena, Calif.). […]

[4] = test system: luciferase-expressing Mia Paca cells; test: Mia Paca pancreatic cancer model, Sindbis vectors with and without CPT-11; format: in vivo, Es1/SCID mice; settings: treated 4 times a week for 2 weeks; images since day 18
Description: FIG. 3 is a graph showing the effect of Sindbis virus vectors with and without CPT-11 treatment on pancreatic cancer in Mia Paca mice, a model for pancreatic cancer.
Female Es1/SCID mice were inoculated intraperitoneally with 5 million luciferase-expressing Mia Paca cells (a model for pancreatic cancer) on day 0. Mice were then divided into 4 groups: Mock (untreated), Sindbis/LacZ treated, CPT-11 treated, and Sindbis/LacZ+CPT-11 treated. The mice were treated 4 times a week, for 2 weeks, and then the treatment was stopped.

[5] = test system: endothelium cells; settings: cited from earlier work
[6] = test system: ES2/Fluc tumors; test: Sindbis+Taxol ES2/Fluc tumor growth and survival experiment; format: in vivo, SCID mice
Description: FIG. 2A-2D: Survival and tumor load in tumor-bearing mice treated with Sindbis+Taxol®. Mice were injected with 4×10^6 ES2/Fluc cells on day 0. Mice were then divided into 4 groups of 9. Mice were treated with Sindbis/LacZ (I.P.) daily from day 1 to day 11, and with Taxol® (0.4 mg/mouse) on day 3, 6 and 10. (B) Quantitative analysis of tumor growth, day 1 tumor load signal was set at 100% for each individual mouse for comparison with later images (day 3, 6, and 10). (C) Mouse survival was monitored. (D) The surviving mice were imaged on day 46 to determine if they have any tumors.
Sindbis+Taxol® ES2/Fluc tumor growth and survival experiment: Female SCID mice (8-12 weeks old) received intraperitoneal injections of 4×10^6 ES2/Fluc cells on day 0, and tumor growth was validated by imaging the mice on day 1. For quantitative analysis of tumor growth, day 1 tumor load signal was set as 100% for each individual mouse for comparison with subsequent images. Mice (nine per group) were treated with Sindbis/LacZ (I.P.) daily from day 1 to day 11, and with Taxol® (0.4 mg/mouse) on day 3, 6 and 10. Mice were imaged on days 1, 3, 6, 10, and 46. A tumor free mouse was used as a negative control.

[7] = test system: cancer cells; test: Pretreatment of cancer cells with drug, susceptibility to Sindbis vector; format: cell-based; settings: data not shown

Compound: N.N.[Cl][Pt][Cl] [Cisplatin]
- maximum tolerated dose [1]: 100 mg/m^2
- Sindbis vector delivery and transduction (luciferase signals in tumors) ([2]; RC-Sindbis/Fluc vector): enhanced
- tumor vascular permeability / leakiness (AngioSense signals) [2]: significantly increased; also recorded: enhancement in tumor vascular leakiness
- therapeutic efficacy in combination with Sindbis vectors ([2]; relative tumor growth curves, FIG. 8B, 9C): better therapeutic efficacy

Compound: CCc1c2c(nc3ccc(OC(=O)N4CCC(N5CCCCC5)CC4)cc13)-c1cc3c(c(=O)n1C2)COC(=O)[C@]3(O)CC [CPT-11, irinotecan]
- additional survival compared with untreated mice [3]: 15 days
- tumor status on images [4]: have tumors that appear to be growing

Compound: CC(=O)O[C@H]1C(=O)[C@@]2(C)[C@H]([C@H](OC(=O)c3ccccc3)[C@]3(O)C[C@H](OC(=O)[C@H](O)[C@@H](NC(=O)c4ccccc4)c4ccccc4)C(C)=C1C3(C)C)[C@]1(OC(C)=O)CO[C@@H]1C[C@@H]2O [Paclitaxel]
- maximum tolerated dose [1]: 175 mg/m^2
- sensitivity of endothelium cells relative to tumor cells, times more sensitive [5]: 10-100
- tumor level of survivors on day 46 ([6]; IVIS imaging, compared with tumor-free mouse): much higher tumor levels
- tumor load / tumor growth by imaging ([6]; days 3, 6 and 10, day 1 signal set at 100%): still show tumor growth
- mice surviving on day 46 ([6]; nine mice per group, treatment stopped for 35 days): one
- susceptibility of pretreated cancer cells to Sindbis vector [7]: does not enhance
- tumor vascular permeability / leakiness (AngioSense signals) [2]: significantly increased; also recorded: enhance tumor vascular leakiness
- tumor growth, drug alone ([2]; relative growth curves, FIG. 8A): suppresses tumor growth
